# Reference: PMC8187357 (Communications Biology, 2021)
# Where “and” joins values, the source holds several entries; their conditions need not be identical. Identical values can stand only once. Entries after “also recorded” stand apart in the source; their conditions may differ.
# Tests used:
# MC38 colon carcinoma = test: MC38 tumors in immunodeficient SCID beige mice; type: in vivo, mouse; conditions: for Individual tumor volumes: MC-38 in SCID beige mice, 10mg/kg, 10 mg/kg
# Procedure: For MC38 syngeneic colon carcinoma subcutaneous model, 0.5 × 10^6 MC38 cells (Source: NCI/NIH, kind gift from Dr. Michael Pollack) were injected subcutaneously to the left flank of the C57B6 mouse (In-house) or SCID Beige mice (Source: Harlan, France) on day 1 and dosing was initiated when average tumor volume reached ~100 mm^3. Animals were randomized based on tumor volumes and treated with either a vehicle control or CA-170 at indicated doses for 14 days. Anti-PD1 antibody (Clone J43 from BioXcel) was dosed intraperitoneally at 100 µg/animal once every week. Treatment efficacy was assessed in terms of the effects of the test substances on the tumor volumes of treated mice relative to vehicle-treated mice. Tumor growth curves of test and control groups using the mean tumor volumes were drawn, percent tumor growth inhibition (%TGI) […].
# CT26 colon carcinoma = test: CT26 model, survival in combination with cyclophosphamide; type: in vivo, mouse; conditions: CT26
# Procedure: Studies in syngeneic models including B16 melanoma metastasis model and CT26 colon carcinoma subcutaneous model were performed as described. For the Docetaxel combination experiment in CT26 model, indicated dosage of docetaxel (Source: Docetere® injection by Dr Reddy’s Laboratories) was dosed intraperitoneally to animals. For the CA-170 combination groups, CA-170 (10 mg/kg/day, oral) was dosed ~10 min after docetaxel. Animal grouping, treatment efficacy assessment and %TGI calculations were performed as mentioned above. For the CT26 experiment with cyclophosphamide, 100 mg/kg of cyclophosphamide was dosed once on day 5 intraperitoneally after cell implantation (first day of dosing for all other groups). Anti-PD1 antibody (Clone J43 from BioXcel) was dosed intraperitoneally at 100 µg/animal once every week.
# PD-L1 = target: T1, PD-L1 (Mus musculus, UniProt Q9EP73); test: Rescue of PD-L1 mediated inhibition of proliferation, mouse splenocytes; type: cell-based; conditions: splenocyte-based assay
# T1 construct: purchased R&D Systems 1019-B7-100
# Procedure: (§1) The ability of peptides, peptidomimetics, and small molecules were analyzed for their ability to rescue T-cell proliferation or IFN-γ release from the inhibitory activity of PD-L1 or PD-L2 in a splenocyte/PBMC-based functional assay as per the protocols reported in publication. […] For all in vitro assays, test agent stock was prepared in water and diluted further in the assay media to achieve test concentrations. Each experimental condition was carried out in triplicates. Percent rescue for a given test compound concentration was calculated by normalizing individual percent test agent proliferation or IFN-γ release values to percent anti-CD3 and anti-CD28 antibodies stimulated proliferation or IFN-γ release. EC50 values were derived by plotting transformed data into non-linear fit in sigmoidal dose–response curve using GraphPad Prism software (Version 7).
# Endothelin ETA, ETB = test: CEREP 80 panel binding: Endothelin; conditions: 10 µM
# Procedure: (§2) CEREP 80 panel assay was carried out by Eurofins Cerep Panlabs facility at France. A series of binding assays was carried out to understand the off-target toxicity of CA-170. CA-170 was tested at 10 μM test concentration in duplicates. Compound binding was calculated as a % inhibition of the binding of a radioactively labeled ligand specific for each target. In each experiment the respective reference compound was tested concurrently with CA-170, and the data were compared with historical values determined at Eurofins. The experiment was accepted in accordance with Eurofins validation standard operating procedure. The results are expressed as a percent of control specific binding; (measured specific binding / control specific binding) × 100 and as a percent inhibition of control specific binding; 100−(measured specific binding / control specific binding) × 100 obtained in the presence of CA-170. The IC50 values (concentration causing a half-maximal inhibition of control specific binding) and Hill coefficients (nH) were determined by non-linear regression analysis of the competition curves generated with mean replicate values using Hill equation curve fitting.
# human PBMCs = test: Cytokine induction in human PBMCs; type: cell-based; conditions: for IFNγ: 48 h, normal density, replicates
# Procedure: To determine the potential for any unforeseen T-cell agonist activity in humans, a study was conducted where human PBMCs from healthy donors were pre-cultured either at normal density (2 × 10^5 cells/well) or at high density (1 × 10^7 cells/mL) in vitro to increase cell–cell contacts and immune scanning as described[24] and then treated with CA-170 (10 nM to 1000 nM) IL-2, TNF-α and IFN-γ cytokine release was measured in the culture supernatants at 24 and 48 h. Human PBMCs stimulated with anti-CD3 alone or anti-CD3 + anti-CD28 antibodies served as positive controls for cytokine release in this assay.
# [1] = test system: Muscarinic M1, M2, M3, M4, M5; test: CEREP 80 panel binding: Muscarinic; conditions: 10 µM
# Procedure: as §2
# PD-L2 [2] = target: T2, PD-L2 (Mus musculus, UniProt Q9WUL5); test: Rescue of IFN-γ release inhibited by PD-L2, mouse splenocytes; type: cell-based; conditions: mean ± S.D.; n=2; read-out: Mouse Splenocyte IFN-γ Rescue EC50 PD-L2
# T2 construct: purchased R&D Systems 1022-PL-100
# Procedure: as §1
# PD-L2 [3] = target: T3, PD-L2 (Homo sapiens, UniProt Q9BQ51); test: Rescue of IFN-γ release inhibited by PD-L2, human PBMC; type: cell-based; conditions: for IFNγ Rescue (%): inhibited by PD-L2; for IFNγ Rescue (%) / IFN-γ: replicates; for IFN-γ: human PBMCs + anti-CD3/anti-CD28 + PD-L2 10 nM
# T3 construct: purchased R&D systems 1224-PL-100
# Procedure: as §1
# T3 sequence (Q9BQ51 with tags, fused parts or gaps limits assumed): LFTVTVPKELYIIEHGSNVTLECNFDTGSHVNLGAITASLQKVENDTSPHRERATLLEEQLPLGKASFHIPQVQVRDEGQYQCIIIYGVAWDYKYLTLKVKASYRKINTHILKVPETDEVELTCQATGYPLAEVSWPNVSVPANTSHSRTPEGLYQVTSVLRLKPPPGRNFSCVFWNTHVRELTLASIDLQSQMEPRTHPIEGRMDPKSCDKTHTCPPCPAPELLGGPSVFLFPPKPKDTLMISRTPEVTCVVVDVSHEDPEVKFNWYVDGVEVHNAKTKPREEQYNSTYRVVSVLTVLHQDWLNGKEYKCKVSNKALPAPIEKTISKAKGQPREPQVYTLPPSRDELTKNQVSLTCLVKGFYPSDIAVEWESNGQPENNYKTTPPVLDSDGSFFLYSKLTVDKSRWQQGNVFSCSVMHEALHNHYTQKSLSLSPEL
# T1 sequence (Q9EP73 with tags, fused parts or gaps limits assumed): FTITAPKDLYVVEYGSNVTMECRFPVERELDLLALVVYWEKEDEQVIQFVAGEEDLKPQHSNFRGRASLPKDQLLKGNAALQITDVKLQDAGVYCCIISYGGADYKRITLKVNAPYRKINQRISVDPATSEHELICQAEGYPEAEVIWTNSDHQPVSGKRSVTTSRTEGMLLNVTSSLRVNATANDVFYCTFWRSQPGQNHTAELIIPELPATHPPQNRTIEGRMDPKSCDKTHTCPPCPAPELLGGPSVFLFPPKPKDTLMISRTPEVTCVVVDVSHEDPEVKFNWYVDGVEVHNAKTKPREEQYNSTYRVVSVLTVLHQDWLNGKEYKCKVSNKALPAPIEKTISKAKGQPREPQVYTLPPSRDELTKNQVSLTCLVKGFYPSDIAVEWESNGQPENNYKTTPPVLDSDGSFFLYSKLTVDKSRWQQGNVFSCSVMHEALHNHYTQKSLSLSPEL
# T2 sequence (Q9WUL5 with tags, fused parts or gaps limits assumed): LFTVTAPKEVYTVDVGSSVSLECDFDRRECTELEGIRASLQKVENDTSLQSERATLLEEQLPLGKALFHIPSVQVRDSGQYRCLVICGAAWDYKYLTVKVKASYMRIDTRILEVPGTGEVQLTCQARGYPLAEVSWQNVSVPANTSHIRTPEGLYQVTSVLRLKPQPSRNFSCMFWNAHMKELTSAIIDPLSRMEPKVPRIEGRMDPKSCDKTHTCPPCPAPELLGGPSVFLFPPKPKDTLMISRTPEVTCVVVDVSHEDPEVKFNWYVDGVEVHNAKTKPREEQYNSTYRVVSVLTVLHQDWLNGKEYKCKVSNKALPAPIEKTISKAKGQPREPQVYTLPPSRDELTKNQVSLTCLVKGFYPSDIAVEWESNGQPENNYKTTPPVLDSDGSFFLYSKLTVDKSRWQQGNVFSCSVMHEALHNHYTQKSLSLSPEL
compound,measurement,setting,value
C[C@@H](O)[C@H](NC(=O)N[C@@H](CC(N)=O)c1nc([C@@H](N)CO)no1)C(=O)O [CA-170],Individual tumor volumes,MC38 colon carcinoma; day 0 of treatment,18.9 mm3 and 19.8 mm3 and 20.5 mm3 and 23 mm3 and 24.3 mm3 and 24.4 mm3 and 27.8 mm3 and 29.3 mm3 and 36.6 mm3 and 38.8 mm3 and 45.9 mm3
same,Individual tumor volumes,MC38 colon carcinoma; day 4 of treatment,165.2 mm3 and 101 mm3 and 33 mm3 and 98.6 mm3 and 101.4 mm3 and 42.7 mm3 and 80.2 mm3 and 120.3 mm3 and 117 mm3 and 120.8 mm3 and 58.8 mm3
same,Individual tumor volumes,MC38 colon carcinoma; day 6 of treatment,428.8 mm3 and 320.3 mm3 and 190.1 mm3 and 337.3 mm3 and 331.1 mm3 and 174.3 mm3 and 206.7 mm3 and 322.4 mm3 and 214 mm3 and 233.5 mm3 and 207.9 mm3
same,Individual tumor volumes,MC38 colon carcinoma; day 8 of treatment,764.7 mm3 and 861.8 mm3 and 304.4 mm3 and 735.9 mm3 and 484.9 mm3 and 297 mm3 and 527.3 mm3 and 483.7 mm3 and 349.6 mm3 and 472.6 mm3 and 369.9 mm3
same,Individual tumor volumes,MC38 colon carcinoma; day 11 of treatment,1229.8 mm3 and 1458.4 mm3 and 838.9 mm3 and 1334.2 mm3 and 1120.4 mm3 and 912.1 mm3 and 1214.1 mm3 and 1274.2 mm3 and 788.4 mm3 and 1032.8 mm3 and 931.5 mm3
same,Individual tumor volumes,MC38 colon carcinoma; day 13 of treatment,1679 mm3 and 1958.7 mm3 and 1062 mm3 and 1678.6 mm3 and 1535.8 mm3 and 938 mm3 and 1760.9 mm3 and 1177.1 mm3 and 1641.5 mm3 and 1410.5 mm3
same,tumor growth vs vehicle in immunodeficient mice (in words),"MC38 colon carcinoma; SCID beige mice, MC-38, 10 mg/kg/day for 14 days",no difference in the tumor volumes; also recorded: no statistically significant difference
same,survival advantage vs vehicle + CTX (in words),CT26 colon carcinoma; CA-170 3 mg/kg/day + single dose CTX 100 mg/kg,Statistically significant survival advantage
same,survival advantage vs vehicle + CTX (in words),CT26 colon carcinoma; CA-170 10 mg/kg/day + single dose CTX 100 mg/kg,Statistically significant survival advantage
same,EC50,PD-L1,0.0154 ± 0.0013 µM
same,% Inhibition of Control Specific Binding,"Endothelin ETA, ETB",≤ 9%
same,IFN-γ,"human PBMCs; 24 hours, Normal density, 10nM",BLoD
same,IFN-γ,"human PBMCs; 24 hours, Normal density, 50nM",BLoD
same,IFN-γ,"human PBMCs; 24 hours, Normal density, 100nM",BLoD
same,IFN-γ,"human PBMCs; 24 hours, Normal density, 250nM",BLoD
same,IFN-γ,"human PBMCs; 24 hours, Normal density, 500nM",BLoD
same,IFN-γ,"human PBMCs; 24 hours, Normal density, 1000nM",BLoD
same,IFNγ,human PBMCs; 10 nM,BLOD
same,IFNγ,human PBMCs; 50 nM,BLOD
same,IFNγ,human PBMCs; 100 nM,BLOD
same,IFNγ,human PBMCs; 250 nM,BLOD
same,IFNγ,human PBMCs; 500 nM,BLOD
same,IFNγ,human PBMCs; 1000 nM,BLOD
same,IFN-γ,"human PBMCs; human, 24 h, 10 nM",2.8 ± 1.9 pg/mL
same,IFN-γ,"human PBMCs; human, 24 h, 50 nM",1.5 ± 1.0 pg/mL
same,IFN-γ,"human PBMCs; human, 24 h, 100 nM",1.5 ± 0 pg/mL
same,IFN-γ,"human PBMCs; human, 24 h, 250 nM",4.0 ± 0.7 pg/mL
same,IFN-γ,"human PBMCs; human, 24 h, 500 nM",6.8 ± 1.5 pg/mL
same,IFN-γ,"human PBMCs; human, 24 h, 1000 nM",5.8 ± 1.4 pg/mL
same,cytokine induction (in words),human PBMCs; normal and high-density culture conditions,did not induce significant levels of cytokines
same,% Inhibition of Control Specific Binding,[1],≤ 12%
same,EC50,PD-L2 [2],0.0783 µM
same,IFNγ Rescue (%),PD-L2 [3]; 1.95 nM,-64.52% and -5.10% and -5.67%
same,IFNγ Rescue (%),PD-L2 [3]; 3.91 nM,-3.89% and -4.90% and -5.25%
same,IFNγ Rescue (%),PD-L2 [3]; 7.81 nM,-1.08% and -2.04% and -2.73%
same,IFNγ Rescue (%),PD-L2 [3]; 15.63 nM,4.10% and 2.24% and 2.52%
same,IFN-γ,PD-L2 [3]; 31.25 nM,66.5 pg/mL and 74 pg/mL and 64 pg/mL
same,IFNγ Rescue (%),PD-L2 [3]; 31.25 nM,4.10% and 2.86% and 1.89%
same,IFNγ Rescue (%),PD-L2 [3]; 62.50 nM,39.96% and 36.33% and 35.71%
same,IFNγ Rescue (%),PD-L2 [3]; 250.00 nM,74.73% and 74.90% and 79.20%
same,IFN-γ,PD-L2 [3]; 500 nM,869 pg/mL and 984 pg/mL and 1059 pg/mL
same,IFNγ Rescue (%),PD-L2 [3]; 500.00 nM,73.43% and 77.14% and 85.50%
same,rescue of IFNγ release inhibited by recombinant PD-L2 (in words),PD-L2 [3]; human PBMCs stimulated with anti-CD3 and anti-CD28,rescued IFNγ release
same,EC50,"PD-L2 [3]; mean ± S.D., n=3",0.0809 µM
